Assay results from ChEMBL document CHEMBL2046367, “Novel BACE1 inhibitors possessing a 5-nitroisophthalic scaffold at the P2 position” (Bioorg Med Chem Lett, 2012).

Tests used:
Beta-secretase 1 [1] = target: T1, Beta-secretase 1 (Homo sapiens, UniProt P56817); experiment: Inhibition of human recombinant BACE1 at 2 uM by FRET assay
Beta-secretase 1 [2] = target: T1, Beta-secretase 1; experiment: Inhibition of human recombinant BACE1 at 0.2 uM by FRET assay
Beta-secretase 1 [3] = target: T1, Beta-secretase 1; experiment: Inhibition of human recombinant BACE1 by FRET assay

T1 sequence (P56817 whole entry): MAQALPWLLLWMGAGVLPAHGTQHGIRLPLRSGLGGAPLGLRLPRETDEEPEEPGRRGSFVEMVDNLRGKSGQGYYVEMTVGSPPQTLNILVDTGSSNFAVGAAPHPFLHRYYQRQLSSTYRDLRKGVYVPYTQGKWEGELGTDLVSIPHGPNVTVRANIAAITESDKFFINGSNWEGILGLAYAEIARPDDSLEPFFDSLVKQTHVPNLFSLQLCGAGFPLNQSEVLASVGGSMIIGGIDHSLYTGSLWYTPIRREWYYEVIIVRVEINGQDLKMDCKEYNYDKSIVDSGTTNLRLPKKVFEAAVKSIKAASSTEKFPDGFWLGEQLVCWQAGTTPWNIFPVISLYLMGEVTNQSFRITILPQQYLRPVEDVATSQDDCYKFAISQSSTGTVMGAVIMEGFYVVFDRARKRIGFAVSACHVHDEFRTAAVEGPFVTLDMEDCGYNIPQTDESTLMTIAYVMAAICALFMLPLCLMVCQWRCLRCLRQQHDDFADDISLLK

`C[C@@H](NC(=O)c1cc(C(=O)N[C@@H](Cc2ccccc2)[C@H](O)C(=O)Nc2cccc(-c3nn[nH]n3)c2)cc([N+](=O)[O-])c1)c1ccc(F)cc1` gave an inhibition (Beta-secretase 1 [1]) of 87% and an inhibition (Beta-secretase 1 [2]) of 50%.

`O=C(N[C@@H](Cc1ccccc1)[C@H](O)C(=O)Nc1cccc(-c2nn[nH]n2)c1)c1cc(C(=O)N2CCCCCC2)cc([N+](=O)[O-])c1` was tested, and the inhibition (Beta-secretase 1 [1]) was 60%.

`CC(C)(C)[C@H]1COCN1C(=O)c1cc(C(=O)N[C@@H](Cc2ccccc2)[C@H](O)C(=O)Nc2cccc(-c3nn[nH]n3)c2)cc([N+](=O)[O-])c1` was tested, and the inhibition (Beta-secretase 1 [1]) was 71%.

`C[C@H]1COCN1C(=O)c1cc(C(=O)N[C@@H](Cc2ccccc2)[C@H](O)C(=O)Nc2cccc(-c3nn[nH]n3)c2)cc([N+](=O)[O-])c1` gave an inhibition (Beta-secretase 1 [1]) of 33%.

`CCCC[C@H]1COCN1C(=O)c1cc(C(=O)N[C@@H](Cc2ccccc2)[C@H](O)C(=O)Nc2cccc(-c3nn[nH]n3)c2)cc([N+](=O)[O-])c1` showed an inhibition (Beta-secretase 1 [1]) of 92% and an inhibition (Beta-secretase 1 [2]) of 59%.

Compound `CCC(C)[C@H]1COCN1C(=O)c1cc(C(=O)N[C@@H](Cc2ccccc2)[C@H](O)C(=O)Nc2cccc(-c3nn[nH]n3)c2)cc([N+](=O)[O-])c1` (stereo partly specified) has an inhibition (Beta-secretase 1 [1]) of 94% and an inhibition (Beta-secretase 1 [2]) of 62%.

`O=C(N[C@@H](Cc1ccccc1)[C@H](O)C(=O)Nc1cccc(-c2nn[nH]n2)c1)c1cccc(C(=O)N2COC[C@@H]2c2ccccc2)c1` showed an inhibition (Beta-secretase 1 [1]) of 85%, an IC50 (Beta-secretase 1 [3]) of 192 nM and an inhibition (Beta-secretase 1 [2]) of 46%.

Work on `O=C(N[C@@H](Cc1ccccc1)[C@H](O)C(=O)Nc1cccc(-c2nn[nH]n2)c1)c1cc(C(=O)N2CCCCCCC2)cc([N+](=O)[O-])c1` yielded an inhibition (Beta-secretase 1 [1]) of 80% and an inhibition (Beta-secretase 1 [2]) of 38%.

Compound `CC(=O)Oc1cc(C(=O)N[C@@H](Cc2ccccc2)[C@H](O)C(=O)Nc2cccc(-c3nn[nH]n3)c2)cc(C(=O)N2COC[C@@H]2c2ccccc2)c1` has an inhibition (Beta-secretase 1 [1]) of 79%.

In the case of `CC[C@H]1COCN1C(=O)c1cc(C(=O)N[C@@H](Cc2ccccc2)[C@H](O)C(=O)Nc2cccc(-c3nn[nH]n3)c2)cc([N+](=O)[O-])c1`, the inhibition (Beta-secretase 1 [1]) is reported as 92% and the inhibition (Beta-secretase 1 [2]) is reported as 54%.

Compound `O=C(N[C@@H](Cc1ccccc1)[C@H](O)C(=O)Nc1cccc(-c2nn[nH]n2)c1)c1cc(C(=O)N2COC[C@@H]2Cc2c[nH]c3ccccc23)cc([N+](=O)[O-])c1` has an inhibition (Beta-secretase 1 [1]) of 57%.

Work on `O=C(N[C@@H](Cc1ccccc1)[C@H](O)C(=O)Nc1cccc(-c2nn[nH]n2)c1)c1cc(C(=O)N2COC[C@@H]2c2ccccc2)cc([N+](=O)[O-])c1` yielded an inhibition (Beta-secretase 1 [1]) of 98%, an IC50 (Beta-secretase 1 [3]) of 19 nM and an inhibition (Beta-secretase 1 [2]) of 88%.

Work on `O=C(N[C@@H](Cc1ccccc1)[C@H](O)C(=O)Nc1cccc(-c2nn[nH]n2)c1)c1cc(Br)cc(C(=O)N2COC[C@@H]2c2ccccc2)c1` yielded an inhibition (Beta-secretase 1 [1]) of 98%, an IC50 (Beta-secretase 1 [3]) of 25 nM and an inhibition (Beta-secretase 1 [2]) of 84%.

`O=C(N[C@@H](Cc1ccccc1)[C@H](O)C(=O)Nc1cccc(-c2nn[nH]n2)c1)c1cc(C(=O)N2CCCCC2)cc([N+](=O)[O-])c1` showed an inhibition (Beta-secretase 1 [1]) of 49%.

With `CC(C)(C)c1cc(C(=O)N[C@@H](Cc2ccccc2)[C@H](O)C(=O)Nc2cccc(-c3nn[nH]n3)c2)cc(C(=O)N2COC[C@@H]2c2ccccc2)c1` the inhibition (Beta-secretase 1 [1]) was 63%.

With `CCC[C@H]1COCN1C(=O)c1cc(C(=O)N[C@@H](Cc2ccccc2)[C@H](O)C(=O)Nc2cccc(-c3nn[nH]n3)c2)cc([N+](=O)[O-])c1` the inhibition (Beta-secretase 1 [1]) was 93% and the inhibition (Beta-secretase 1 [2]) was 57%.

With `O=C(N[C@@H](Cc1ccccc1)[C@H](O)C(=O)Nc1cccc(-c2nn[nH]n2)c1)c1cc(C(=O)N2COC[C@@H]2Cc2ccc(O)cc2)cc([N+](=O)[O-])c1` the inhibition (Beta-secretase 1 [1]) was 80%.

For `O=C(N[C@@H](Cc1ccccc1)[C@H](O)C(=O)Nc1cccc(-c2nn[nH]n2)c1)c1cc(C(=O)N2CCCCCCCC2)cc([N+](=O)[O-])c1`, the inhibition (Beta-secretase 1 [1]) was 28%.

For `O=C(N[C@@H](Cc1ccccc1)[C@H](O)C(=O)Nc1cccc(-c2nn[nH]n2)c1)c1cc(C(=O)N2CCCC2)cc([N+](=O)[O-])c1`, the inhibition (Beta-secretase 1 [1]) was 24%.

Work on `CC(C)[C@H]1COCN1C(=O)c1cc(C(=O)N[C@@H](Cc2ccccc2)[C@H](O)C(=O)Nc2cccc(-c3nn[nH]n3)c2)cc([N+](=O)[O-])c1` yielded an inhibition (Beta-secretase 1 [1]) of 88% and an inhibition (Beta-secretase 1 [2]) of 44%.

With `COC[C@H]1CCCN1C(=O)c1cc(C(=O)N[C@@H](Cc2ccccc2)[C@H](O)C(=O)Nc2cccc(-c3nn[nH]n3)c2)cc([N+](=O)[O-])c1` the inhibition (Beta-secretase 1 [1]) was 89% and the inhibition (Beta-secretase 1 [2]) was 57%.

Work on `O=C(N[C@@H](Cc1ccccc1)[C@H](O)C(=O)Nc1cccc(-c2nn[nH]n2)c1)c1cc(C(=O)N2CCOCC2)cc([N+](=O)[O-])c1` yielded an inhibition (Beta-secretase 1 [1]) of 0%.

With `Nc1cc(C(=O)N[C@@H](Cc2ccccc2)[C@H](O)C(=O)Nc2cccc(-c3nn[nH]n3)c2)cc(C(=O)N2COC[C@@H]2c2ccccc2)c1` the inhibition (Beta-secretase 1 [1]) was 49%.

For `O=C(N[C@@H](Cc1ccccc1)[C@H](O)C(=O)Nc1cccc(-c2nn[nH]n2)c1)c1cc(I)cc(C(=O)N2COC[C@@H]2c2ccccc2)c1`, the inhibition (Beta-secretase 1 [1]) was 98% and the inhibition (Beta-secretase 1 [2]) was 78%.

Work on `Cc1cc(C(=O)N[C@@H](Cc2ccccc2)[C@H](O)C(=O)Nc2cccc(-c3nn[nH]n3)c2)cc(C(=O)N2COC[C@@H]2c2ccccc2)c1` yielded an inhibition (Beta-secretase 1 [1]) of 95% and an inhibition (Beta-secretase 1 [2]) of 65%.

`O=C(N[C@@H](Cc1ccccc1)[C@H](O)C(=O)Nc1cccc(-c2nnn[nH]2)c1)c1cc(I)cc(C(=O)N2COC[C@@H]2c2ccccc2)c1` was tested, and the IC50 (Beta-secretase 1 [3]) was 34 nM.

Compound `O=C(O)c1cc(C(=O)N[C@@H](Cc2ccccc2)[C@H](O)C(=O)Nc2cccc(-c3nn[nH]n3)c2)cc(C(=O)N2COC[C@@H]2c2ccccc2)c1` has an inhibition (Beta-secretase 1 [1]) of 91%, an IC50 (Beta-secretase 1 [3]) of 122 nM and an inhibition (Beta-secretase 1 [2]) of 60%.

`CC(C)C[C@H]1COCN1C(=O)c1cc(C(=O)N[C@@H](Cc2ccccc2)[C@H](O)C(=O)Nc2cccc(-c3nn[nH]n3)c2)cc([N+](=O)[O-])c1` was tested, and the inhibition (Beta-secretase 1 [1]) was 85% and the inhibition (Beta-secretase 1 [2]) was 42%.

Work on `O=C(N[C@@H](Cc1ccccc1)[C@H](O)C(=O)Nc1cccc(-c2nn[nH]n2)c1)c1cc(C(=O)N2COC[C@@H]2CC2CCCCC2)cc([N+](=O)[O-])c1` yielded an inhibition (Beta-secretase 1 [1]) of 50%.

`C[C@@H](NC(=O)c1cc(C(=O)N[C@@H](Cc2ccccc2)[C@H](O)C(=O)Nc2cccc(-c3nn[nH]n3)c2)cc([N+](=O)[O-])c1)c1ccccc1` was tested, and the inhibition (Beta-secretase 1 [1]) was 83% and the inhibition (Beta-secretase 1 [2]) was 44%.

`O=C(N[C@@H](Cc1ccccc1)[C@H](O)C(=O)Nc1cccc(-c2nn[nH]n2)c1)c1cc(C(=O)N2COC[C@@H]2Cc2ccccc2)cc([N+](=O)[O-])c1` gave an inhibition (Beta-secretase 1 [1]) of 89% and an inhibition (Beta-secretase 1 [2]) of 45%.

`O=C(N[C@@H](Cc1ccccc1)[C@H](O)C(=O)Nc1cccc(-c2nn[nH]n2)c1)c1cc(C(=O)N2COC[C@@H]2c2cc(F)c(F)c(F)c2)cc([N+](=O)[O-])c1` showed an inhibition (Beta-secretase 1 [1]) of 81% and an inhibition (Beta-secretase 1 [2]) of 41%.

`Cc1cc(C(=O)N[C@@H](Cc2ccccc2)[C@H](O)C(=O)Nc2cccc(-c3nnn[nH]3)c2)cc(C(=O)N2COC[C@@H]2c2ccccc2)c1` gave an IC50 (Beta-secretase 1 [3]) of 67 nM.

Work on `CSCC[C@H]1COCN1C(=O)c1cc(C(=O)N[C@@H](Cc2ccccc2)[C@H](O)C(=O)Nc2cccc(-c3nn[nH]n3)c2)cc([N+](=O)[O-])c1` yielded an inhibition (Beta-secretase 1 [1]) of 86% and an inhibition (Beta-secretase 1 [2]) of 45%.

Compound `CCCN(CCC)C(=O)c1cc(C(=O)N[C@@H](Cc2ccccc2)[C@H](O)C(=O)Nc2cccc(-c3nn[nH]n3)c2)cc([N+](=O)[O-])c1` has an inhibition (Beta-secretase 1 [1]) of 79%.

For `O=C(N[C@@H](Cc1ccccc1)[C@H](O)C(=O)Nc1cccc(-c2nn[nH]n2)c1)c1cc(C(=O)N2COC[C@@H]2c2ccc(F)cc2)cc([N+](=O)[O-])c1`, the inhibition (Beta-secretase 1 [1]) was 99%, the IC50 (Beta-secretase 1 [3]) was 13 nM and the inhibition (Beta-secretase 1 [2]) was 91%.
